In publication PMC9123294, “Role of LL-37 in thrombotic complications in patients with COVID-19” (Cellular and Molecular Life Sciences: CMLS, 2022):

B1: Cramp (peptide)
peptide: GLLRKGGEKIGEKLKKIGQKIKNFFQKLVPQPE
notes: also called LL-37 homolog from Mus musculus; cathelicidin peptide; source: synthetic peptide (GL Biochem, Shanghai; purity > 98%)

Key:
Human alpha thrombin = Human alpha thrombin (Homo sapiens, UniProt P00734); experiment: biochemical
Procedure: SPR analysis was performed as described previously, with some modifications. Briefly, thrombin and FXa were immobilized on the activated sensor chip CM-5 by amine coupling. […] The equilibrium dissociation constant (KD) was calculated using the Langmuir model with Biacore evaluation software provided by the manufacturer.

Human factor Xa = molecular target: T1, Human factor Xa (human, UniProt P00742 41-179; P00742 235-488); experiment: SPR; thrombin and FXa immobilised on a CM-5 sensor chip by amine coupling; LL-37 or Cramp flowed in HBS-EP+ running buffer at 30 ul/min; BIAcore 3000; KD from the Langmuir model; conditions: both partners purified
T1 construct: also called FXa; source: bought: Enzyme Research Laboratories (HFXa 1011)
T1 sequence (P00742 41-179, chain 1 of 2): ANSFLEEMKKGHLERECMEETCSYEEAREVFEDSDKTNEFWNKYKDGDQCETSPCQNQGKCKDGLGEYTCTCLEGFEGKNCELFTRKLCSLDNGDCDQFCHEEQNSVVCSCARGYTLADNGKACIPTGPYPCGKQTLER
T1 sequence (P00742 235-488, chain 2 of 2): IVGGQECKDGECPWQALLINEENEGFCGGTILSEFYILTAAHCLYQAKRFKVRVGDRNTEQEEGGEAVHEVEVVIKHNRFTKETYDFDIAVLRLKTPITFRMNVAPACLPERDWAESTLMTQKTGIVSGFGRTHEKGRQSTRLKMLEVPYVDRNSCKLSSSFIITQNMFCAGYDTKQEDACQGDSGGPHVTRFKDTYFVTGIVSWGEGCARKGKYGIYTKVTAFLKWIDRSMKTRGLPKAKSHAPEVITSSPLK

Row | Molecule | Kd (Human alpha thrombin) [µM] | Kd (Human factor Xa) [µM]
1 | CC[C@H](C)[C@H](NC(=O)[C@H](CCCCN)NC(=O)[C@H](CCC(=O)O)NC(=O)[C@H](CCCCN)NC(=O)[C@H](CO)NC(=O)[C@H](CCCCN)NC(=O)[C@H](CCCNC(=N)N)NC(=O)[C@H](Cc1ccccc1)NC(=O)[C@H](Cc1ccccc1)NC(=O)[C@H](CC(=O)O)NC(=O)CNC(=O)[C@H](CC(C)C)NC(=O)[C@@H](N)CC(C)C)C(=O)NCC(=O)N[C@@H](CCCCN)C(=O)N[C@@H](CCC(=O)O)C(=O)N[C@@H](Cc1ccccc1)C(=O)N[C@@H](CCCCN)C(=O)N[C@@H](CCCNC(=N)N)C(=O)N[C@H](C(=O)N[C@H](C(=O)N[C@@H](CCC(N)=O)C(=O)N[C@@H](CCCNC(=N)N)C(=O)N[C@H](C(=O)N[C@@H](CCCCN)C(=O)N[C@@H](CC(=O)O)C(=O)N[C@@H](Cc1ccccc1)C(=O)N[C@@H](CC(C)C)C(=O)N[C@@H](CCCNC(=N)N)C(=O)N[C@@H](CC(N)=O)C(=O)N[C@@H](CC(C)C)C(=O)N[C@H](C(=O)N1CCC[C@H]1C(=O)N[C@@H](CCCNC(=N)N)C(=O)N[C@H](C(=O)N[C@@H](CCC(=O)O)C(=O)N[C@@H](CO)C(=O)O)[C@@H](C)O)C(C)C)[C@@H](C)CC)C(C)C)[C@@H](C)CC [LL-37] | 2.64 | 
2 | B1 |  | 317
